{"source": "patent US20080003569A1", "about": "“Method for the Detection of Intracellular Parameters With Luminescent Protein Probes for the Screening of Molecules Capable of Altering Said Parameters” (priority 2004, published 2008)", "key": {"[1]": {"test_system": "endogenous receptor for ATP P2Y", "experiment": "mt-AEQ photon emission, CHO cells, endogenous ATP receptor", "type": "cell-based", "details": "ATP 100 μM", "experimental": "(§2) 36 hours after the transfection, the cells, cultivated on flasks for cellular cultures (75 cm^2), were detached from the bottom by trypsinization. The cellular suspension was then transferred to a Falcon tube (of 15 or 50 ml) and subjected to centrifugation at 1200 rpm in a cell centrifuge at 20° C. and finally the cellular precipitate was re-suspended in KRB/Ca^2+ (Krebs-Ringer modified buffer: 125 mM NaCl, 5 mM KCl, 1 mM CaCl2, 1 mM Na3PO4, 1 mM MgSO4, 5.5 mM glucose, 20 mM HEPES, pH 7.4, 37° C.).\n(§3) The prosthetic group celentherazine was added at a final concentration of 5 μM to the suspension of engineered cells expressing the mt-AEQ probe.\n(§4) 50 μl of suspension containing transfected cells (corresponding to about 100,000 cells) were planted in each well of the plate. The cells were left to adhere for a time varying from 1 to 2 hours keeping them in the dark, due to the photo-instability of celentherazine.\n(§5) At the end of the incubation time, the various molecules to be tested were added to each well and the plate with the treated cells was then put in direct contact with a photo-multiplier which measures the emission of photons on the part of aequorin."}, "[2]": {"test_system": "PKC-aequorin (PKC-AEQ) probe: PKC beta, delta, epsilon, zeta", "experiment": "Translocation of PKC-aequorin probe to the plasmatic membrane, HeLa cells, photon emission", "type": "cell-based", "description": "In the specific example, the results presented relate to the use of the PKC beta-aequorin (PCKβ-AEQ), PKC delta-aequorin (PCKδ-AEQ), PKC epsilon-aequorin (PCKε-AEQ), PKC zeta-aequorin (PCKζ-AEQ) probes.\nThese probes were obtained by inserting, in a eukaryotic expression vector (pcDNA3; 5.4 kb), the sequence encoding the various PKC isoforms condensed in frame with the sequence encoding aequorin described above.\nThe cells cultivated on cellular culture flasks (75 cm^2) were transfected with a vector containing the chimeric probe produced, using the most suitable transfection techniques for the cellular line in question. As the HeLa stabilized cellular line was used as experimental model, the calcium phosphate technique was adopted as transfection method which guarantees a high percentage of positive cells for this cellular line.\n(§1) 36 hours after transfection, the cells contained in the flask were detached from the bottom by trypsinization.\nThe prosthetic group celentherazine was added to the suspension of cells expressing the PKC-aequorin probe at a final concentration of 5 μM. […]"}, "[3]": {"target": "endogenous receptor for histamine Hi (Homo sapiens, UniProt P35367)", "sequence (P35367 whole entry)": "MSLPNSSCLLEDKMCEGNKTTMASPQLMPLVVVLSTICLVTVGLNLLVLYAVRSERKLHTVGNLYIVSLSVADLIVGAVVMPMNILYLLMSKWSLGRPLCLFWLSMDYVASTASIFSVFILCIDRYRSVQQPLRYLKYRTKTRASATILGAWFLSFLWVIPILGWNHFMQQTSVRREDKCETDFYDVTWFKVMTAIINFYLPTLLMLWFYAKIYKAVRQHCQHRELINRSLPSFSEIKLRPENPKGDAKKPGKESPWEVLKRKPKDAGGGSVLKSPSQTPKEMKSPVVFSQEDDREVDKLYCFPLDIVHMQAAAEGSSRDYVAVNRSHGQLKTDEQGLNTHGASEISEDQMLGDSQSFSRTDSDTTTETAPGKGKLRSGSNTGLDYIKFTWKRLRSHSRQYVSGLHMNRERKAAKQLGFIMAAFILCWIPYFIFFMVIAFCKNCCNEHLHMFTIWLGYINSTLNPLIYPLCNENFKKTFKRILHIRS", "details": "HeLa mt-AEQ cells, histamine 100 μM", "experimental": "(§6) The cellular lines thus engineered were then both transfected with the vector containing the mt-AEQ probe by means of the calcium phosphate technique.\nas §2, §3, §4\n(§7) At the end of the incubation time, the various molecules to be tested were added to each well and the plate with the treated cells was then put in direct contact with a photo-multiplier which measures the emission of photons on the part of aequorin. […]"}, "beta adrenergic receptor": {"test_system": "beta adrenergic receptor", "experiment": "mt-AEQ photon emission, control HeLa cells expressing beta adrenergic receptor", "type": "cell-based", "details": "control HeLa cells expressing a beta adrenergic receptor, stimulated with isoproterenol", "experimental": "as §2, §3, §4, §5\nHeLa cells expressing a beta adrenergic receptor and stimulated with isoproterenol for inducing the stimulation of said receptor, were used as control (dotted line)."}, "[4]": {"test_system": "beta/alpha adrenergic receptor (chimeric)", "experiment": "mt-AEQ photon emission, HeLa cells expressing chimeric beta/alpha adrenergic receptor", "type": "cell-based", "details": "HeLa mt-AEQ cells with chimeric receptor, isoproterenol 100 μM; from less than 20 before stimulation", "experimental": "as §6, §2, §3, §4, §7"}, "[5]": {"test_system": "PKC beta-aequorin (PKCβ-AEQ) probe", "experiment": "Translocation of PKC beta-aequorin probe under hyperglycaemia conditions, HUVEC cells", "type": "cell-based", "details": "10 mM glucose plus metformin 20 μM", "description": "A beta-aequorin PKC probe, already described in example 1, was used, with which HUVEC endothelial cells were transfected. The cells cultivated on cellular culture flasks (75 cm^2) were transfected with a vector containing the chimeric probe produced, using the most suitable transfection techniques for the cellular line in question. Endothelial cells of stabilized umbilical cord veins, called HUVEC, were used as the experimental model, which were transfected with the PKC beta-aequorin probe, using lipofectamine which guarantees a high percentage of positive cells for this cellular line. 36 hours after transfection, the cells contained in the flask were detached from the bottom by trypsinization. […] The prosthetic group celentherazine at a final concentration of 5 μM was added to the cell suspension expressing the PKC beta-aequorin probe. […] The example provided was carried out on three parallel batches of cells: a) HUVEC cells expressing the PKC beta-aequorin (PKCβ-AEQ) probe, maintained under control conditions (absence of glucose) (dotted line). b) HUVEC cells expressing the PKC beta-aequorin (PKCβ-AEQ) probe, maintained under hyperglycaemia conditions (10 mM of glucose) (dark, thick line). c) HUVEC cells expressing the PKC beta-aequorin (PKCβ-AEQ) probe, maintained under hyperglycaemia conditions (10 mM of glucose) treated with a well-known anti-diabetic agent, metformin (20 μM) (dark, thin line)."}, "[6]": {"test_system": "p66shc-aequorin (p66shc-AEQ) probe", "experiment": "Translocation of p66shc-aequorin probe to the plasmatic membrane, A431 cells", "type": "cell-based", "description": "This probe was obtained by inserting, in a eukaryotic expression vector (pcDNA3; 5.4 kb), the sequence encoding the p66shc protein condensed in frame with the sequence encoding aequorin.\nThe cells cultivated on cellular culture flasks (75 cm^2) were transfected with a vector containing the chimeric probe produced, using the most suitable transfection techniques for the cellular line in question. The stabilized transfected cellular line A431 was adopted as experimental model, using the “Effectene reagent” procedure (Qiagen, Germany), which guarantees a high percentage of positive cells for this cellular line.\n24 hours after the transfection, the cells were maintained in a DMEM culture medium, without serum.\nas §1\nThe prosthetic group celentherazine was added to the suspension of cells expressing the p66shc-aequorin probe, at a final concentration of 5 μM. […]"}, "[7]": {"test_system": "ORL1/alpha adrenergic receptor (chimeric)", "experiment": "mt-AEQ photon emission, CHO cells expressing chimeric ORL1/alpha adrenergic receptor", "type": "cell-based", "details": "CHO mt-AEQ cells with chimeric receptor, nociceptine 1 μM; from less than 20 before stimulation", "experimental": "as §6, §2, §3, §4, §7"}, "[8]": {"details": "from less than 20 before stimulation"}}}
{"compound": "Nc1ncnc2c1ncn2[C@@H]1O[C@H](COP(=O)(O)OP(=O)(O)OP(=O)(O)O)[C@@H](O)[C@H]1O", "note": "[ATP]", "values": [{"measurement": "concentration of calcium in the mitochondrial matrix", "setting": "[1]", "result": "considerable and transient increase"}, {"measurement": "emission of photons on the part of aequorin", "setting": "[1]; [8]", "result": "over 80,000 photons emitted per second"}]}
{"compound": "CCCCCCCCCCCCCC(=O)O[C@@H]1[C@@H](C)[C@@]2(O)[C@@H](C=C(CO)C[C@]3(O)C(=O)C(C)=C[C@@H]23)[C@@H]2C(C)(C)[C@]12OC(C)=O", "note": "[PMA]", "values": [{"measurement": "emission of photons", "setting": "[2]; HeLa PKC-AEQ cells, PMA 1 μM, after addition of external calcium", "result": "> 100,000 cps"}, {"measurement": "emission of photons", "setting": "[2]; HeLa cells, absence of external calcium", "result": "lower than 100 cps"}]}
{"compound": "NCCc1c[nH]cn1", "note": "[histamine, Histamine]", "values": [{"measurement": "concentration of calcium in the mitochondrial matrix", "setting": "[3]", "result": "considerable and transient increase"}, {"measurement": "emission of photons on the part of aequorin", "setting": "[3]; [8]", "result": "over 80,000 photons emitted per second"}]}
{"compound": "CC(C)NCC(O)c1ccc(O)c(O)c1", "note": "(centres unmarked) [isoproterenol, Isoproterenol]", "values": [{"measurement": "increase in cps", "setting": "beta adrenergic receptor", "result": "does not induce any increase in cps"}, {"measurement": "emission of photons on the part of aequorin", "setting": "[4]", "result": "over 80,000 photons emitted per second"}]}
{"compound": "CN(C)C(=N)N=C(N)N", "note": "[metformin]", "values": [{"measurement": "emission of photons", "setting": "[5]; HUVEC PKCβ-AEQ cells, after addition of external calcium", "result": "lower than 40,000 cps"}, {"measurement": "inhibition of the PKCβ-AEQ probe translocation (grade)", "setting": "[5]; HUVEC", "result": "good inhibition"}, {"measurement": "translocation induced by glucose under hyperglycaemia conditions", "setting": "[5]; HUVEC", "result": "inhibits the translocation"}]}
{"compound": "EGF: epidermic growth factor, maximal activator of p66shc translocation", "values": [{"measurement": "emission of photons", "setting": "[6]; A431 cells, absence of external calcium", "result": "lower than 100 cps"}, {"measurement": "emission of photons", "setting": "[6]; A431 p66shc-AEQ cells, EGF 100 ng/ml, after addition of external calcium", "result": "> 100,000 cps"}]}
{"compound": "Nociceptine", "values": [{"measurement": "emission of photons on the part of aequorin", "setting": "[7]", "result": "over 80,000 photons emitted per second"}]}
